Experiments:
[1] = system: human pleural mesothelioma cells NCI-H226; experiment: Cell anti-proliferation experiment (CCK8), NCI-H226; assay type: cell-based
In short: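 Viability was measured by CCK-8 (3 h, A450) after 3-day treatment with 0.15–333.33 nM compound in 0.1% DMSO medium. Curve-fitted IC50 was based on viability normalised to no-drug and cell-free controls.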

YAP-TEAD = YAP-TEAD inhibitor activity by Nano luciferase method (8xGTiiC-nLuc reporter in 293T cells); assay type: cell-based; settings: Homo sapiens, HEK-293T, 48 hours incubation, read-out: Nano-luciferase detection (IC50)
In short: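 293T cells transiently transfected with pGL3B-8xGTiiC-nLuc-CMV-fLuc, seeded 2000 cells/well, then treated 48 h at 37 °C with compounds in 1:3.16 dilution series (top 10,000 nM). Nano luciferase signal read after cell lysis; IC50 from percent of 0 nM control.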

SMILES | IC50 [1] [nM] | IC50 (YAP-TEAD) [nM]
CC#CC(=O)Nc1ccc2c(c1)c1nn(C)cc1c(=O)n2-c1ccc(C(F)(F)F)cc1 [Example T-238] | ≤ 1000 | ≤ 1000
C[C@H](NC(=O)c1ccc2c(c1)C1CCCC1CN2c1ccc(C(F)(F)F)cc1)c1ccccc1 (some centres unmarked) [Example T-283] | 1000 to 5000 | 1000 to 5000
C[C@H](NC(=O)c1ccc2c(c1)c1ccc(F)cc1c(=O)n2-c1ccc(C(F)(F)F)cc1)c1ccccn1 [Example T-260] | ≤ 1000 | 1000 to 5000
C[C@H](NC(=O)c1ccc2c(c1)c(=O)ccn2-c1ccc(C(F)(F)F)cc1)c1ccccn1 [Example T-17] | 1000 to 5000 | ≤ 1000
Cn1cc2c(=O)n(-c3ccc(C(F)(F)F)cc3)c3ccc(NC(=O)/C=C/CN4CCCCC4)cc3c2n1 [Example T-177] | ≤ 1000 | ≤ 1000
Cc1cccc2c1c(=O)n(-c1ccc(C(F)(F)F)cc1)c1ccc(C(=O)N[C@@H](C)c3ccccn3)cc21 [Example T-257] | ≤ 1000 | ≤ 1000
CNS(=O)(=O)c1ccc2c(c1)-c1nn(C)cc1CC(=O)N2c1ccc(C(F)(F)F)cc1 [Example T-51] | ≤ 1000 | ≤ 1000
C=CC(=O)Nc1cnc2c(c1)c1cscc1c(=O)n2-c1ccc(C(F)(F)F)cc1 [Example T-240] | ≤ 1000 | ≤ 1000
C[C@H](NC(=O)c1ccc2c(c1)c1nccnc1c(=O)n2-c1ccc(C(F)(F)F)cc1)c1ccccn1 [Example T-337] | ≤ 1000 | ≤ 1000
COC[C@H](C)NC(=O)c1ccc2c(c1)-c1ncn(C)c1CN2c1ccc(C(F)(F)F)cc1 [Example T-16] | ≤ 1000 | ≤ 1000
C/C=C/C(=O)Nc1ccc2c(c1)c1nn(C)cc1c(=O)n2-c1ccc(C(F)(F)F)cc1 [Example T-239] | ≤ 1000 | ≤ 1000
CNS(=O)(=O)c1ccc2c(c1)-c1ncn(C)c1CN2c1ccc(C(F)(F)F)cc1 [Example T-7] | ≤ 1000 | ≤ 1000
C[C@H](NC(=O)c1ccc2c(c1)c1c(F)scc1c(=O)n2-c1ccc(C(F)(F)F)cc1)c1ccccn1 [Example T-298] | ≤ 1000 | ≤ 1000
Cn1cc2c(=O)n(-c3ccc(C(F)(F)F)cc3)c3ccc(C(=O)NC(C)(C)C)cc3c2n1 [Example T-101] | ≤ 1000 | ≤ 1000
C[C@H](NC(=O)c1ccc2c(c1)c1nn(C)cc1c(=O)n2-c1ccc(OC(F)(F)F)cc1)c1ccccn1 [Example T-229] | ≤ 1000 | ≤ 1000
Cn1cc2c(=O)n(-c3ccc(C(F)(F)F)cc3)c3ccc(NC(=O)c4ccccc4)cc3c2n1 [Example T-171] | ≤ 1000 | ≤ 1000
Cn1cc2c(=O)n(-c3ccc(C(F)(F)F)cc3)c3ccc(C(=O)NCc4ccccn4)cc3c2n1 [Example T-113] | ≤ 1000 | ≤ 1000
Cn1cc2c(=O)n(-c3ccc(C(F)(F)F)cc3)c3ccc(NC(=O)c4ccccn4)cc3c2n1 [Example T-170] | ≤ 1000 | ≤ 1000
C[C@H](NC(=O)c1ccc2c(c1)c1csnc1c(=O)n2-c1ccc(C(F)(F)F)cc1)c1ccccn1 [Example T-328] | ≤ 1000 | ≤ 1000
C[C@H](NC(=O)c1ccc2c(c1)c1nn(C)cc1c(=O)n2Cc1ccccc1)c1ccccn1 [Example T-271] | ≤ 1000 | ≤ 1000
C[C@H](NC(=O)c1ccc2c(c1)c1ccccc1c(=O)n2-c1ccc(C(F)(F)F)cc1)c1cccc(N)n1 [Example T-399] | ≤ 1000 | ≤ 1000

SMILES | IC50 [1] [nM] | IC50 (YAP-TEAD) [nM]
C=CC(=O)Nc1cnc2c(c1)c1nn(C)cc1c(=O)n2-c1ccc(C(F)(F)F)cc1 [Example T-241] | ≤ 1000 | ≤ 1000
C[C@H](NC(=O)c1cnc2c(c1)c1cc(C#N)ccc1c(=O)n2-c1ccc(C(F)(F)F)cc1)c1ccccn1 [Example T-410] | ≤ 1000 | ≤ 1000
C[C@H](NC(=O)c1ccc2c(c1)c1ccccc1c(=O)n2-c1ccc(C(F)(F)F)cn1)c1ccccn1 [Example T-248] | ≤ 1000 | ≤ 1000
C[C@H](NC(=O)c1cnc2c(c1)c1nscc1c(=O)n2-c1ccc(C(F)(F)F)cc1)c1cccc(N)n1 [Example T-409] | ≤ 1000 | ≤ 1000
Cc1oc(C)c2c1c(=O)n(-c1ccc(C(F)(F)F)cc1)c1ccc(C(=O)N[C@@H](C)c3ccccn3)cc21 [Example T-289] | ≤ 1000 | ≤ 1000
COC(=O)Nc1ccc2c(c1)c1nn(C)cc1c(=O)n2-c1ccc(C(F)(F)F)cc1 [Example T-180] | ≤ 1000 | ≤ 1000
N#CC1CN(C(=O)c2ccc3c(ccc(=O)n3-c3ccc(C(F)(F)F)cc3)c2)C1 [Example T-21] | 1000 to 5000 | 1000 to 5000
C[C@H](NC(=O)c1ccc2c(c1)c1ncncc1c(=O)n2-c1ccc(C(F)(F)F)cc1)c1ccccn1 [Example T-332] | ≤ 1000 | ≤ 1000
CNS(=O)(=O)c1ccc2c(c1)c1ncn(CCOC)c1c(=O)n2-c1ccc(C(F)(F)F)cc1 [Example T-20] | ≤ 1000 | ≤ 1000
C[C@H](NC(=O)c1ccc2c(c1)-c1nn(C)cc1[C@H](C)N2c1ccc(C(F)(F)F)cc1)c1cccc(N)n1 [Example T-327] | ≤ 1000 | ≤ 1000
C[C@H](NC(=O)c1cnc2c(ccc(=O)n2-c2ccc(C(F)(F)F)cc2)c1)c1ccccn1 [Example T-456] | ≤ 1000 | ≤ 1000
C[C@H](NC(=O)c1ccc2c(c1)c1ocnc1c(=O)n2-c1ccc(C(F)(F)F)cc1)c1ccccn1 [Example T-391] | ≤ 1000 | ≤ 1000
C[C@H](NC(=O)c1ccc2c(c1)c1c(c(=O)n2-c2ccc(C(F)(F)F)cc2)CCC(F)C1)c1ccccn1 (some centres unmarked) [Example T-303] | ≤ 1000 | ≤ 1000
C[C@H](NC(=O)c1ccc2c(c1)c1c(c(=O)n2-c2ccc(C(F)(F)F)cc2)CC(F)C1)c1ccccn1 (some centres unmarked) [Example T-291] | ≤ 1000 | ≤ 1000
C=CC(=O)Nc1ccc2c(c1)c1nscc1c(=O)n2-c1ccc(C(F)(F)F)cc1 [Example T-418] | ≤ 1000 | ≤ 1000
C[C@H](NC(=O)c1ccc2c(c1)c1cscc1c(=O)n2-c1ccc(S(F)(F)(F)(F)F)cc1)c1ccccn1 [Example T-274] | ≤ 1000 | ≤ 1000
C[C@H](NC(=O)c1ccc2c(c1)c1c(c(=O)n2-c2ccc(C(F)(F)F)cc2)CCC(F)(F)C1)c1ccccn1 [Example T-307] | ≤ 1000 | ≤ 1000
C=CC(=O)Nc1ccc2c(c1)c1nn(C)cc1c(=O)n2-c1ccc(S(F)(F)(F)(F)F)cc1 [Example T-231] | ≤ 1000 | ≤ 1000
CC1CCc2c1c1cc(C(=O)N[C@@H](C)c3ccccn3)ccc1n(-c1ccc(C(F)(F)F)cc1)c2=O (some centres unmarked) [Example T-445] | ≤ 1000 | ≤ 1000
C[C@@H](NC(=O)c1ccc2c(c1)c1nn(C)cc1c(=O)n2-c1ccc(C(F)(F)F)cc1)c1ccc(F)cn1 [Example T-127] | 1000 to 5000 | 1000 to 5000

Further lines, results first:

IC50 [1] [nM] | IC50 (YAP-TEAD) [nM] | SMILES
≤ 1000 | ≤ 1000 | C[C@H](NC(=O)c1ccc2c(c1)c1c(C#N)cccc1c(=O)n2-c1ccc(C(F)(F)F)cc1)c1ccccn1 [Example T-318]
≤ 1000 | ≤ 1000 | Cc1c(C)c2cc(C(=O)N[C@@H](C)c3cccc(N)n3)ccc2n(-c2ccc(C(F)(F)F)cc2)c1=O [Example T-431]
≤ 1000 | ≤ 1000 | CN(C)C(=O)Nc1ccc2c(c1)c1nn(C)cc1c(=O)n2-c1ccc(C(F)(F)F)cc1 [Example T-182]
≤ 1000 | ≤ 1000 | C[C@H](NC(=O)c1cnc2c(c1)c1sccc1c(=O)n2-c1ccc(C(F)(F)F)cc1)c1ccccn1 [Example T-377]
≤ 1000 | ≤ 1000 | C[C@H](NC(=O)c1ccc2c(c1)c1cccc(C#N)c1c(=O)n2-c1ccc(C(F)(F)F)cc1)c1ccccn1 [Example T-321]
≤ 1000 | ≤ 1000 | C=CC(=O)Nc1ccc2c(c1)cc(C)c(=O)n2-c1ccc(C(F)(F)F)cc1 [Example T-412]
≤ 1000 | ≤ 1000 | CNS(=O)(=O)c1ccc2c(c1)c1nc[nH]c1c(=O)n2-c1ccc(C(F)(F)F)cc1 [Example T-33]
≤ 1000 | ≤ 1000 | C[C@H](NC(=O)c1ccc2c(c1)c1cscc1c(=O)n2-c1ccc(C(F)(F)F)nc1)c1ccccn1 [Example T-264]
≤ 1000 | ≤ 1000 | C=CC(=O)Nc1ccc2c(c1)c1nn(C)cc1c(=O)n2-c1ccc(C(F)(F)F)cc1 [Example T-172]
≤ 1000 | ≤ 1000 | Cn1cc2c(=O)n(-c3ccc(C(F)(F)F)cc3)c3ccc(NC(=O)N4CCCC4)cc3c2n1 [Example T-184]
≤ 1000 | ≤ 1000 | Cc1occ2c1c(=O)n(-c1ccc(C(F)(F)F)cc1)c1ncc(C(=O)N[C@@H](C)c3ccccn3)cc21 [Example T-376]
≤ 1000 | ≤ 1000 | CC/C=C/C(=O)Nc1ccc2c(c1)c1nn(C)cc1c(=O)n2-c1ccc(C(F)(F)F)cc1 [Example T-234]
≤ 1000 | ≤ 1000 | CNC(=O)c1ccc2c(c1)c1nn(C)cc1c(=O)n2-c1ccc(C(F)(F)F)cc1 [Example T-111]
≤ 1000 | ≤ 1000 | Cc1cccnc1[C@H](C)NC(=O)c1ccc2c(c1)c1nn(C)cc1c(=O)n2-c1ccc(C(F)(F)F)cc1 [Example T-145]
1000 to 5000 | 1000 to 5000 | Cn1cc2c(=O)n(-c3ccc(C(F)(F)F)cc3)c3ccc(C(=O)Nc4c[nH]cn4)cc3c2n1 [Example T-121]
≤ 1000 | ≤ 1000 | CNS(=O)(=O)c1ccc2c(c1)-c1nn(C)cc1CCN2c1ccc(C(F)(F)F)cc1 [Example T-54]
≤ 1000 | ≤ 1000 | C[C@H](NC(=O)c1ccc2c(c1)c1cccnc1c(=O)n2-c1ccc(C(F)(F)F)cc1)c1ccccn1 [Example T-254]

— US20250154105A1, “POLYCYCLIC COMPOUND AND USE THEREOF” (TYK MEDICINES, INC., priority 2021, published 2025)
